Measured values reported in BindingDB's records for patent US20240101552 (Shanghai Pharmaceuticals Holding Co., 2024).

Target: T1, LanC-like protein 2 (Homo sapiens, UniProt Q9NS86)
T1 sequence (Q9NS86 whole entry): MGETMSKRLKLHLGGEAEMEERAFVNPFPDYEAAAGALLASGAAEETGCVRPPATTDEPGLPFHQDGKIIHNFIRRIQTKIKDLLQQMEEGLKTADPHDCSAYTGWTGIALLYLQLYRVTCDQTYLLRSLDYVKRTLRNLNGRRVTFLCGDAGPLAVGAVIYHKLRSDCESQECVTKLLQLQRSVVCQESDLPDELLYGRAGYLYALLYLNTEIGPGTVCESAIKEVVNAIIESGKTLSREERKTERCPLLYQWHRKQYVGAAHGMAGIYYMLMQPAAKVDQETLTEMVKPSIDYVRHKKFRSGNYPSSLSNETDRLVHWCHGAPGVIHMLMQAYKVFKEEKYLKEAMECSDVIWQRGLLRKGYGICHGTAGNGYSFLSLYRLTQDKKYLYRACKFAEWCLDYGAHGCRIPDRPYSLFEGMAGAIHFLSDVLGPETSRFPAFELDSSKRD
Experiment: Receptor Binding Assay
Method: 1. […] The kinetic parameters of small molecules BT-11 and L-1 to 60 (analytes) binding to LANCL2 (ligand) were determined using BIACORE S200. Data were generated in triplicate in a dose-dependent manner (5-8 titration points) and analyzed to determine binding models (Langmuir, conformational shifts, etc.), real-time association and dissociation constants, and equilibrium dissociation constants. SPR technology allows the validation of specific LANCL2-phytochemical interactions as well as an increased insight into the gold standard of binding mechanisms and rates. Experiments were performed on carboxymethyl polydextrose (CM5) sensor chips by amine-coupled covalent attachment of LANCL2. Data were analyzed with BIACORE S200T200 evaluation software (version 1), so as to determine affinity binding constants (KD) using a 1:1 binding model.

SMILES | Kd [µM]
O=C(Nc1ccccc1NC(=O)c1cccc(-c2cn3ccccc3n2)c1)c1cccc(-c2cn3ccccc3n2)c1 [US20240101552, Compound L-1] | 4.46
O=C(NC1C2CN(C(=O)c3cccc(-c4cn5ccccc5n4)c3)CC21)c1cccc(-c2nc3ccccc3[nH]2)n1 [US20240101552, Compound L-2] | 0.719
O=C(c1cccc(-c2cn3ccccc3n2)c1)N1CC2CC1CN2C(=O)c1cccc(-c2nc3ccccc3[nH]2)n1 [US20240101552, Compound L-4] | 40
O=C(c1cccc(-c2nc3ccccc3[nH]2)n1)N1CC2CN(C(=O)c3ccnc(N4CCOCC4)n3)CC2C1 [US20240101552, Compound L-16] | 84.9
O=C(NC1C2CN(C(=O)c3cccc(-c4nc5ccccc5[nH]4)n3)CC21)c1ccnc(Nc2ccccn2)n1 [US20240101552, Compound L-25] | 2.01
O=C(NC1CCN(C(=O)c2cccc(-c3nc4ccccc4[nH]3)n2)CC1)c1cccc([N+](=O)[O-])c1 [US20240101552, Compound L-38] | 9.09
O=C(C1CCCN1C(=O)c1cccc(-c2cn3ccccc3n2)c1)N1CC2CN(c3ccc([N+](=O)[O-])cc3)CC2C1 [US20240101552, Compound L-39] | 6.33
O=C(c1cccc([N+](=O)[O-])c1)N1CC2CN(C(=O)c3cccc(-c4nc5ccccc5[nH]4)n3)CC2C1 [US20240101552, Compound L-41] | 27.6
O=C(c1cccc(-c2cn3ccccc3n2)c1)N1CC2CN(C(=O)c3ccnc(Nc4ccccc4)n3)CC2C1 [US20240101552, Compound L-43] | 49.2
O=C(c1cccc(-c2cn3ccccc3n2)c1)N1CC2CN(C(=O)c3cccc(-c4nc5ccccc5[nH]4)n3)CC2C1 [US20240101552, Compound L-55] | 16.8
O=C(N[C@H]1[C@@H]2CN(C(=O)c3cccc(-c4cn5ccccc5n4)c3)C[C@@H]21)c1cccc(-c2cn3ccccc3n2)c1 [US20240101552, Compound L-89] | 2.53
O=C(N[C@H]1[C@@H]2CN(C(=O)c3cccc(Nc4ccccc4)n3)C[C@@H]21)c1cccc(-c2cn3ccccc3n2)c1 [US20240101552, Compound L-90] | 9.5
O=C(NC1CCN(C(=O)c2ccnc(Nc3ccccc3)n2)CC1)c1ccnc(Nc2ccccn2)n1 [US20240101552, Compound L-99] | 5.41
O=C(N[C@H]1[C@@H]2CN(C(=O)c3cccc(Nc4ccccc4)n3)C[C@@H]21)c1ccnc(Nc2ccccc2)n1 [US20240101552, Compound L-103] | 24.1
O=C(N[C@H]1[C@@H]2CN(C(=O)c3cccnc3Oc3ccccc3)C[C@@H]21)c1cccc(-c2cn3ccccc3n2)c1 [US20240101552, Compound L-105] | 17.5
O=C(N[C@H]1[C@@H]2CN(C(=O)c3n[nH]c4ccccc34)C[C@@H]21)c1cccc(-c2cn3ccccc3n2)c1 [US20240101552, Compound L-106] | 4.32

Further lines, results first:

Kd [µM] | SMILES
6.92 | O=C(c1cccc(-c2cn3ccccc3n2)c1)N1CCC2(CC1)CCN(C(=O)c1cccc(-c3nc4ccccc4[nH]3)n1)CC2 [US20240101552, Compound L-3]
17 | O=C(NC1CCN(C(=O)c2cccc(-c3nc4ccccc4[nH]3)n2)CC1)c1cccc(-c2cn3ccccc3n2)c1 [US20240101552, Compound L-5]
18.4 | O=C(c1cccc(-c2nc3ccccc3[nH]2)n1)N1CC2CN(C(=O)c3cccc(-c4nc5ccccc5[nH]4)n3)CC2C1 [US20240101552, Compound L-10]
2.3 | O=C(c1cccc(-c2nc3ccccc3[nH]2)n1)N1CCC2(CC1)CCN(C(=O)c1ccnc(N3CCOCC3)n1)CC2 [US20240101552, Compound L-15]
57.3 | O=C(c1cccc(-c2nc3ccccc3[nH]2)n1)N1CC2CN(C(=O)c3ccnc(Nc4ccccc4)n3)CC2C1 [US20240101552, Compound L-24]
65.8 | O=C(c1cccc(-c2nc3ccccc3[nH]2)n1)N1CC2CN(C(=O)c3ccnc(Nc4ccccn4)n3)CC2C1 [US20240101552, Compound L-26]
3.21 | O=C(c1cccc([N+](=O)[O-])c1)N1CCC2(CC1)CCN(C(=O)c1cccc(-c3nc4ccccc4[nH]3)n1)CC2 [US20240101552, Compound L-40]
8.31 | O=C(c1cccc(Nc2ccccc2)n1)N1CCC2(CC1)CCN(C(=O)c1cccc(-c3nc4ccccc4[nH]3)n1)CC2 [US20240101552, Compound L-45]
13.3 | O=C(NC1CCN(C(=O)c2cccc(-c3nc4ccccc4[nH]3)n2)CC1)c1cccc(Nc2ccccc2)n1 [US20240101552, Compound L-47]
36 | O=C(c1ccnc(Nc2ccccn2)c1)N1CC2CN(C(=O)c3cccc(-c4nc5ccccc5[nH]4)n3)CC2C1 [US20240101552, Compound L-53]
23.2 | O=C(c1cccc(Nc2ccccc2)n1)N1CCC2(CCN(C(=O)c3cccc(-c4nc5ccccc5[nH]4)n3)CC2)C1 [US20240101552, Compound L-61]
12.2 | O=C(c1ccnc(Nc2ccccc2)n1)N1CCC2(CC1)CCN(C(=O)c1ccnc(Nc3ccccn3)n1)CC2 [US20240101552, Compound L-98]
29.5 | O=C(c1cccc(Nc2ccccc2)n1)N1CC2CN(C(=O)c3ccnc(Nc4ccccc4)n3)CC2C1 [US20240101552, Compound L-102]
10.8 | O=C(NC1CCN(C(=O)c2cccc(Nc3ccccc3)n2)CC1)c1cccc(Nc2ccccc2)n1 [US20240101552, Compound L-114]
8.73 | O=C(Nc1cccc(-c2cn3ccccc3n2)c1)N1CCN(C(=O)c2cccc(-c3nc4ccccc4[nH]3)n2)CC1 [US20240101552, Compound L-118]
